Test results as given in ChEMBL document CHEMBL5726363, “Indoline compounds as aldosterone synthase inhibitors” (2017).

Target: T1, Cytochrome P450 11B2, mitochondrial (Homo sapiens, UniProt P19099)
T1 sequence (P19099 whole entry): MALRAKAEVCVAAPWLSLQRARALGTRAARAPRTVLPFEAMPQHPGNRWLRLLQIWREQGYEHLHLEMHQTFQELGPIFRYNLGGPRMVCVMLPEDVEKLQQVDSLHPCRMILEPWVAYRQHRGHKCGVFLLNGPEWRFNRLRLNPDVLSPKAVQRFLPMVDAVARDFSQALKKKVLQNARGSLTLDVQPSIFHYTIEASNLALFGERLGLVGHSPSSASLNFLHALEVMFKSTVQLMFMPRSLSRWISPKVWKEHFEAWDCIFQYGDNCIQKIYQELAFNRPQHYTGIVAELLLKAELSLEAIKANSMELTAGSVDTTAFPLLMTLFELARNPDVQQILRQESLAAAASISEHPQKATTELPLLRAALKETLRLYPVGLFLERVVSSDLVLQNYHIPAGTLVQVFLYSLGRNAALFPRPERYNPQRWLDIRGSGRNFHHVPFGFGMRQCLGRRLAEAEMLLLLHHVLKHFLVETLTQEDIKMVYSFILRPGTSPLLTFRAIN
Assay: HTRF-Based Assay : V79 cell lines stably expressing the either the human CYP11B2 or the human CYP11B1 enzyme were generated using a standard transfection protocol. V79 cells were transfected with plasmids pTriEx3-Hygro-hCyp11B2 or pTriEx3-Hygro-hCyp11B1 using Lipofectamine2000 reagent. V79 cells that stably express the human CYP11B2 or human CYP11B1 enzyme were selected for and maintained in DMEM supplemented with 10% FBS and 400 μg/mL hygromycin for 2 weeks. Single cell clones were generated by infinite dilution in DMEM supplemented with 10% FBS and 400 μg/mL hygromycin until single colonies were obtained. Clones V79-hCYP11B2-CLE9 and V79-hCYP11B1-CL8C7, were determined to produce the most aldosterone and cortisol, respectively, and were selected for inhibitor screening. For testing of inhibitors, cells were harvested at 80% confluency with 0.05% Trypsan-EDTA, washed once in PBS, and reconstituted in DMEM+0.1% BSA media at a cell concentration of 600,000 cells/mL for the CYP11B2 assay and 280,000 cells/mL for the CYP11B1 assay. 25 μL of cells were added to a 384 well tissue culture treated plate and mixed with 0.3 μL of inhibitor or DMSO (1% final DMSO concentration) for 1 hour at 37° C., 5% CO2. After pre-incubation with inhibitor, the reaction was initiated by adding 5 μL of substrate (final concentration of 125 nM 11-deoxycorticosterone for the CYP11B2 assay or 250 nM 11-deoxycortisol for the CYP11B1 assay). The reaction was carried out for 3 hours at 37° C., 5% CO2 and was stopped by harvesting the supernatants. The amount of product in the supernatant (aldosterone for CYP11B2 assay and cortisol for the CYP11B1 assay) was measured using HTRF-based assay kit (Aldosterone HTRF-CisBio#64ALDPEB, Cortisol HTRF-CisBio #63IDC002-CORT).

Row | SMILES | IC50
1 | CC(C)C(=O)N1CCc2cc(-c3cncc4ccccc34)ccc21 | 30 nM
2 | O=C(N1CCc2cc(-c3cncc(F)c3)cc(F)c21)C(F)(F)F | 17.4 nM
3 | O=C(N1CCc2cc(-c3cncc(F)c3)cc(Cl)c21)C(F)(F)F | 10.6 nM

Stronger by IC50, values ahead:

Row | IC50 | SMILES
4 | 1.4 nM | CC(=O)N1CCc2cc(-c3cncc(F)c3C)cc(Cl)c21
5 | 0.2 nM | CC(=O)N1CCc2cc(-c3cnccc3C)cc(F)c21
